Test system: CD8+ T cells
Test: In vitro priming of CD8+ T cells with aAPCs (pHLA/anti-CD28) and pHLA multimer staining
Assay type: cell-based, human
Method: To perform in vitro stimulations by artificial antigen-presenting cells (aAPCs) loaded with peptide-HLA complexes (pHLA) and anti-CD28 antibody, the inventors first isolated CD8+ T cells via positive selection using CD8 microbeads (Miltenyi Biotec, Bergisch-Gladbach, Germany) from fresh HLA-matched leukapheresis products of healthy donors obtained from the University clinics Mannheim, Germany, after informed consent.
PBMCs and isolated CD8+ lymphocytes were incubated in T cell medium (TCM) until use consisting of RPMI-Glutamax (Thermo Fisher Scientific, Waltham, USA) supplemented with 10% heat-inactivated human AB serum (CC Pro, Oberdorla, Germany), 100 U/ml Penicillin/100 μg/ml Streptomycin (Biozym, Hessisch Oldendorf, Germany), 1 mM sodium pyruvate (CC Pro, Oberdorla, Germany) and 20 μg/ml Gentamycin (Biozym, Hessisch Oldendorf, Germany). 2.5 ng/ml IL-7 (PromoCell, Heidelberg, Germany) and 10 U/ml IL-2 (Novartis Pharma, Nürnberg, Germany) were also added to the TCM at this step.
The purified co-stimulatory mouse IgG2a anti human CD28 Ab 9.3 (Jung et al., 1987) was chemically biotinylated using sulfo-N-hydroxysuccinimidobiotin as recommended by the manufacturer (Perbio, Bonn, Germany). Beads used were 5.6 μm diameter streptavidin coated polystyrene particles (Bangs Laboratories, Illinois, USA).
800.000 beads/200 μl were coated in 96-well plates in the presence of up to four different biotinylated pHLA complexes (total amount 50 ng/well), washed and 600 ng biotinylated anti-CD28 were added subsequently in a volume of 200 μl/well.
Stimulations were initiated in 96-well plates by co-incubating 1×10^6 CD8+ T cells with 2×10^5 washed aAPCs in 200 μl TCM supplemented with 5 ng/ml IL-12 (PromoCell) for 3 days at 37° C. Half of the medium was then exchanged by fresh TCM supplemented with 80 U/ml IL-2 and incubation was continued for 4 days at 37° C. This stimulation cycle was performed for a total of three times. […]
For the pHLA multimer readout using up to eight different pHLA molecules per condition, a two-dimensional combinatorial coding approach was used as previously described (Andersen et al., 2012a; Andersen et al., 2012b) with minor modifications encompassing coupling to 5 different fluorochromes.
Finally, multimeric analyses were performed by staining the cells with Live/dead near IR dye (Thermo Fisher Scientific, Waltham, USA), CD8-FITC antibody clone SK1 (BD, Heidelberg, Germany) and fluorescent pHLA multimers. […] Peptide-specific cells were calculated as percentage of total CD8+ cells. […] In vitro priming of specific multimer+CD8+ lymphocytes was detected by comparing to negative control stimulations.

RL(X)VGSIPR [HNRNPR-002] was tested. Which “UV peptide-specific T cell populations (multimer+ cells among CD8+ cells)” value (stimulated with pHLA obtained after UV exchange A*03:01_HNRNPR-002×HADV-014 (residual UV monomer), three cycles, FIG. 5 B) did it give?
The value was 6.7 % of CD8+ cells.

Which “Presence of peptide specific cells by multimer staining (standard refolded multimers)” value (after stimulation with A*02:01_FLUM-003×MLA-001, FIG. 3 C+D) does the source give for KILGFVF(X)V [FLUM-003] here?
Its value is “confirmed the presence”.

And the “Detection of conditional ligand specific cells by multimer staining with EC monomers from the same UV monomer” value (priming with HLA-A*02_FLUM-003×CMV-001, FIG. 6 Plate B, stimulation position 1 and 2)?
Its value is “FLUM-003 specific cells were stimulated and detected”.

SARPPL(X)SV [MUDENG-002] was tested. Which “UV peptide-specific T cell populations (multimer+ cells among CD8+ cells)” value (stimulated with standard refolded pHLA B*07:02_MUDENG-002, three cycles of stimulation, FIG. 5 A) did it give?
The value was 2.4 % of CD8+ cells.

Source: patent US20240358831A1, “SELECTION OF IMMUNE CELLS USING PEPTIDE MHC COMPLEXES GENERATED BY CONDITIONAL LIGAND EXCHANGE” (IMMATICS US, INC., priority 2021, published 2024)
